According to patent US20250064941A1, “SIGLEC LIGANDS, CONJUGATES, AND METHODS OF USE THEREOF” (Osprey Biopharmaceuticals, Inc., priority 2023, published 2025):

Columns and labels:
[1] = biological target: T1, mouse Siglec-2-Fc-Avi (CD22) (Mus musculus, UniProt P35329); experiment: SPR binding affinity to mouse CD22; details: steady-state analysis
T1 construct: made in house
T1 sequence (P35329 22-708 limits assumed): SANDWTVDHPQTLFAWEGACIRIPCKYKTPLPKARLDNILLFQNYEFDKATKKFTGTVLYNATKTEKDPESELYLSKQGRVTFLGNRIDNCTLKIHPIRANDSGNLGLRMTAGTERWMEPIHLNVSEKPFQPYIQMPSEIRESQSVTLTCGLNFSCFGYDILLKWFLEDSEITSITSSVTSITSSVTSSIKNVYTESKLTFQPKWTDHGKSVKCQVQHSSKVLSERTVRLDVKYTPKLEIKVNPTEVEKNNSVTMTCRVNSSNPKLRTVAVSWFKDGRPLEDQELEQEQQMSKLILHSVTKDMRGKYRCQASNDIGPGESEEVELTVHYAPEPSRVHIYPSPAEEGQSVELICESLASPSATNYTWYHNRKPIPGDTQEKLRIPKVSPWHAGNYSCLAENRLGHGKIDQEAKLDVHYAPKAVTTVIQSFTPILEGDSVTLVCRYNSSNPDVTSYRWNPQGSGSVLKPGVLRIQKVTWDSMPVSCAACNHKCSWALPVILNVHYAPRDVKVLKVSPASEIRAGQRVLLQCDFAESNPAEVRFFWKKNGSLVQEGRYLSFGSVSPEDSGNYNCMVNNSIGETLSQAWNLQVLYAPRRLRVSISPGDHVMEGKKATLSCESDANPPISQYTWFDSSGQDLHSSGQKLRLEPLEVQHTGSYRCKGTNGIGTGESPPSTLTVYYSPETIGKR
Outline: (§1)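 Steady-state fits gave the affinities. Before capture on a streptavidin surface, biotinylated CD22 had native sialic acids stripped (SialoExo, 4 hours, 37° C.). Running buffer: 10 mM HEPES pH 7.5, 150 mM NaCl, 0.05% Tween-20, 1% DMSO, with DMSO solvent correction.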

[2] = biological target: T2, human Siglec-2/CD22 protein (Homo sapiens, UniProt P20273); experiment: SPR binding affinity to human CD22; details: steady-state analysis
T2 construct: purchased Acro Biosystems SI2-H82E3
T2 sequence (P20273 20-847): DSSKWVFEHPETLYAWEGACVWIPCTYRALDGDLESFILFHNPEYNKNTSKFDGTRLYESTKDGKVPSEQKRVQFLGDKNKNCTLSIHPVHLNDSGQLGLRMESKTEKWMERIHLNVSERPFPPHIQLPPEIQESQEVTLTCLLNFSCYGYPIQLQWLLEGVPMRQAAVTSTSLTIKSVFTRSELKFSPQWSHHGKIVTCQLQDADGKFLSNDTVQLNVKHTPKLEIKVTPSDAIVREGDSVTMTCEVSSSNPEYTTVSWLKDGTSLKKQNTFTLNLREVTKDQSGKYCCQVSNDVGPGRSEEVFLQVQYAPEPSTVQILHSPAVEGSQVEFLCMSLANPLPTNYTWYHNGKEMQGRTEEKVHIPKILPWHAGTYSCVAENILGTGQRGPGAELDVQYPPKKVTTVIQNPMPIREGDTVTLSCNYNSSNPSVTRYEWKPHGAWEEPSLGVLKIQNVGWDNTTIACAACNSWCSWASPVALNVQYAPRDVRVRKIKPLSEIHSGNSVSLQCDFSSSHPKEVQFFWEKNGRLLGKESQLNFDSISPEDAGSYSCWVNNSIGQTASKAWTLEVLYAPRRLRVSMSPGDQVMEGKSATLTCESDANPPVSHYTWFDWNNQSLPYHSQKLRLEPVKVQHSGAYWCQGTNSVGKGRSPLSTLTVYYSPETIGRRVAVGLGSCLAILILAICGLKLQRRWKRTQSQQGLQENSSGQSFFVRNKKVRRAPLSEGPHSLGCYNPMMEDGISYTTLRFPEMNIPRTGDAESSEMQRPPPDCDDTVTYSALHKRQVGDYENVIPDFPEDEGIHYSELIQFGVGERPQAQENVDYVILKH
Outline: as §1

[3] = biological target: cynomolgus Siglec-2/CD22 (Macaca fascicularis, UniProt A0A2K5WCZ6); experiment: biochemical; assay type: binding; details: SPR, steady-state analysis; read-out: Affinity cyno CD22
cynomolgus Siglec-2/CD22, sequence (A0A2K5WCZ6 entry or part of it): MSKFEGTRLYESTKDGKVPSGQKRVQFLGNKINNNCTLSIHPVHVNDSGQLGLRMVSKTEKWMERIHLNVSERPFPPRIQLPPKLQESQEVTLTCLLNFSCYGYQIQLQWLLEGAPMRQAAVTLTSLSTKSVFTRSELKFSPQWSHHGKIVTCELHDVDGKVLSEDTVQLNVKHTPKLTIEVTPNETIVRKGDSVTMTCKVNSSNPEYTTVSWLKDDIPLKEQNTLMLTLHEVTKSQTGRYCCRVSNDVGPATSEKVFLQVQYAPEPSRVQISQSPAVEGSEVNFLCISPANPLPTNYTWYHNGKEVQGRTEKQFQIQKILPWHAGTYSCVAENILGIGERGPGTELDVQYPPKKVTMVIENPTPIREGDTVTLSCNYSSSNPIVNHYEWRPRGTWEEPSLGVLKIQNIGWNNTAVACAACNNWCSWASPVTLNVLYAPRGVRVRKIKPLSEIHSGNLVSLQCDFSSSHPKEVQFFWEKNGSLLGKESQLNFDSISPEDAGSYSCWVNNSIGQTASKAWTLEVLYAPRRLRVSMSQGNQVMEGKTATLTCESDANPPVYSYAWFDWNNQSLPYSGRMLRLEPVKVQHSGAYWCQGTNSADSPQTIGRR
Method: Prior to immobilization, CD22 proteins were treated with SialoExo (Genovis, Cat #G1-SM1-020) for 4 hours at 37° C. to remove native sialic acid residues.
Surface preparation for cyno CD22 protein consisted of amine coupling to Cytiva CM5 chip (Cytiva, Cat #BR100530) using the Cytiva amine coupling kit Type 2 (Cytiva, Cat #BR100633). Following the standard amine coupling protocols, EDC and NHS from the kit were mixed 1:1 and injected over flow cells 1 and 2. […] Any active carboxy groups were then capped with 1M Ethanolamine, pH 8.5 for 420s on flow cells 1 and 2.
Binding experiments of Siglec-ligand conjugated proteins or Siglec ligand compounds were performed on the surfaces prepared above in 10 mM HEPES, 150 mM NaCl, 0.05% Tween-20, pH 7.5, 1% DMSO as the running buffer. […] The compounds were then allowed to dissociate from the surface for 120 seconds. […] Solvent correction was performed using 0.5, 1, 1.5, and 2% DMSO spike into running buffer without DMSO. […] Data was analyzed using steady-state analysis in Biacore Insight Evaluation Software, version 3.0 for Siglec ligand compounds.

| Structure (SMILES) | Kd [1] | Kd [2] | Kd [3] |
| --- | --- | --- | --- |
| C#CCOCCOCCO[C@]1(C(=O)O)C[C@H](O)[C@@H](NC(=O)CO)[C@H]([C@H](O)[C@H](O)CNC(=O)c2cccc(O)c2)O1 [Compound 29, (2R,4S,5R,6R)-6-((1R,2R)-1,2-dihydroxy-3-(3-hydroxybenzamido)propyl)-4-hydroxy-5-(2-hydroxyacetamido)-2-(2-(2-(prop-2-yn-1-yloxy)ethoxy)ethoxy)tetrahydro-2H-pyran-2-carboxylic acid] | > 10 µM | 1 to 10 µM | > 10 µM |
| C#CCOCCOCCO[C@]1(C(=O)O)C[C@H](O)[C@@H](NC(=O)CO)[C@H]([C@H](O)[C@H](O)CNC(=O)c2ccc(Cl)cc2)O1 [Compound 30, (2R,4S,5R,6R)-6-((1R,2R)-3-(4-chlorobenzamido)-1,2-dihydroxypropyl)-4-hydroxy-5-(2-hydroxyacetamido)-2-(2-(2-(prop-2-yn-1-yloxy)ethoxy)ethoxy)tetrahydro-2H-pyran-2-carboxylic acid] | > 10 µM | 1 to 10 µM | 1 to 10 µM |
| C#CCOCCOCCO[C@]1(C(=O)O)C[C@H](O)[C@@H](NC(=O)CO)[C@H]([C@@H](F)[C@H](O)CNC(=O)Cc2ccc(-c3ccccc3)cc2)O1 [Compound 32] | > 10 µM | > 10 µM | > 10 µM |
| C#CCOCCOCCO[C@]1(C(=O)O)C[C@H](O)[C@@H](NC(=O)CO)[C@H]([C@H](O)[C@H](O)CNC(=O)Cc2cccc(-c3ccccc3)c2)O1 [Compound 33, (2R,4S,5R,6R)-6-((1R,2R)-3-(2-([1,1′-biphenyl]-3-yl)acetamido)-1,2-dihydroxypropyl)-4-hydroxy-5-(2-hydroxyacetamido)-2-(2-(2-(prop-2-yn-1-yloxy)ethoxy)ethoxy)tetrahydro-2H-pyran-2-carboxylic acid] | > 10 µM | < 1 µM | 1 to 10 µM |
| C#CCOCCOCCO[C@@]1(C(=O)O)O[C@@H]([C@H](O)[C@H](O)CNC(=O)Cc2ccc(-c3ccccc3)cc2)[C@H](NC(=O)CO)[C@@H](NC(=O)c2cccc(OC)c2)[C@@H]1O [Compound 36, (2R,3S,4R,5R,6R)-6-((1R,2R)-3-(2-([1,1′-biphenyl]-4-yl)acetamido)-1,2-dihydroxypropyl)-3-hydroxy-5-(2-hydroxyacetamido)-4-(3-methoxybenzamido)-2-(2-(2-(prop-2-yn-1-yloxy)ethoxy)ethoxy)tetrahydro-2H-pyran-2-carboxylic acid] | 1 to 10 µM | < 1 µM | 1 to 10 µM |
| C#CCCOc1ccc(CO[C@]2(C(=O)O)C[C@H](O)[C@@H](NC(=O)CO)[C@H]([C@H](O)[C@H](O)CNC(=O)Cc3ccc(-c4ccccc4)cc3)O2)cc1 [Compound 37, (2R,4S,5R,6R)-6-((1R,2R)-3-(2-([1,1′-biphenyl]-4-yl)acetamido)-1,2-dihydroxypropyl)-2-((4-(but-3-yn-1-yloxy)benzyl)oxy)-4-hydroxy-5-(2-hydroxyacetamido)tetrahydro-2H-pyran-2-carboxylic acid] | < 1 µM | < 1 µM | < 1 µM |
| C#CCCOc1cccc(CO[C@]2(C(=O)O)C[C@H](O)[C@@H](NC(=O)CO)[C@H]([C@H](O)[C@H](O)CNC(=O)Cc3ccc(-c4ccccc4)cc3)O2)c1 [Compound 38, (2R,4S,5R,6R)-6-((1R,2R)-3-(2-([1,1′-biphenyl]-4-yl)acetamido)-1,2-dihydroxypropyl)-2-((3-(but-3-yn-1-yloxy)benzyl)oxy)-4-hydroxy-5-(2-hydroxyacetamido)tetrahydro-2H-pyran-2-carboxylic acid] | < 1 µM | < 1 µM | < 1 µM |
| C#CCCCCCCO[C@]1(C(=O)O)C[C@H](O)[C@@H](NC(=O)CO)[C@H]([C@H](O)[C@H](O)CNC(=O)c2cccc(Oc3ccccc3)c2)O1 [Compound 40, (2R,4S,5R,6R)-6-((1R,2R)-1,2-dihydroxy-3-(3-phenoxybenzamido)propyl)-4-hydroxy-5-(2-hydroxyacetamido)-2-(oct-7-yn-1-yloxy) tetrahydro-2H-pyran-2-carboxylic acid] | 1 to 10 µM | < 1 µM | < 1 µM |
| C#CCOCCOCCNc1c(NCCCCCCO[C@]2(C(=O)O)C[C@H](O)[C@@H](NC(=O)CO)[C@H]([C@H](O)[C@H](O)CNC(=O)C(F)(F)c3ccccc3)O2)c(=O)c1=O [Compound 41, (2R,4S,5R,6R)-6-((1R,2R)-3-(2,2-difluoro-2-phenylacetamido)-1,2-dihydroxypropyl)-2-((6-((3,4-dioxo-2-((2-(2-(prop-2-yn-1-yloxy)ethoxy)ethyl)amino)cyclobut-1-en-1-yl)amino)hexyl)oxy)-4-hydroxy-5-(2-hydroxyacetamido) tetrahydro-2H-pyran-2-carboxylic acid] | 1 to 10 µM | 1 to 10 µM | 1 to 10 µM |
| C#CCCCCCCO[C@]1(C(=O)O)C[C@H](O)[C@@H](NC(=O)CO)[C@H]([C@H](O)[C@H](O)CNC(=O)C(F)(F)c2ccccc2)O1 [Compound 42, (2R,4S,5R,6R)-6-((1R,2R)-3-(2,2-difluoro-2-phenylacetamido)-1,2-dihydroxypropyl)-4-hydroxy-5-(2-hydroxyacetamido)-2-(oct-7-yn-1-yloxy) tetrahydro-2H-pyran-2-carboxylic acid] | 1 to 10 µM | < 1 µM | < 1 µM |
| C#CCCOc1ccc(CO[C@]2(C(=O)O)C[C@H](O)[C@@H](NC(=O)CO)[C@H]([C@H](O)[C@H](O)CNC(=O)Cc3cccc(-c4ccc(O)cc4)c3)O2)cc1 [Compound 44, (2R,4S,5R,6R)-2-((4-(but-3-yn-1-yloxy)benzyl)oxy)-6-((1R,2R)-1,2-dihydroxy-3-(2-(4′-hydroxy-[1,1′-biphenyl]-3-yl)acetamido)propyl)-4-hydroxy-5-(2-hydroxyacetamido)tetrahydro-2H-pyran-2-carboxylic acid] | 1 to 10 µM | < 1 µM | 1 to 10 µM |
| C#CCCOc1ccc(CO[C@]2(C(=O)O)C[C@H](O)[C@@H](NC(=O)CO)[C@H]([C@H](O)[C@H](O)CNC(=O)Cc3cccc(-c4cccc(O)c4)c3)O2)cc1 [Compound 45, (2R,4S,5R,6R)-2-((4-(but-3-yn-1-yloxy)benzyl)oxy)-6-((1R,2R)-1,2-dihydroxy-3-(2-(3′-hydroxy-[1,1′-biphenyl]-3-yl)acetamido)propyl)-4-hydroxy-5-(2-hydroxyacetamido)tetrahydro-2H-pyran-2-carboxylic acid] | 1 to 10 µM | < 1 µM | 1 to 10 µM |
